As a reminder, the IC50 is the concentration that gives 50% inhibition. Read a low IC50 as inhibition by little substance.

The test concerns the target T1, TgFPPS (Toxoplasma gondii, UniProt Q197X6).
T1 construct: gene FPPS; bifunctional enzyme making FPP and GGPP; enzyme assay as in Szajnman et al., 2008
T1 sequence (Q197X6 1-646): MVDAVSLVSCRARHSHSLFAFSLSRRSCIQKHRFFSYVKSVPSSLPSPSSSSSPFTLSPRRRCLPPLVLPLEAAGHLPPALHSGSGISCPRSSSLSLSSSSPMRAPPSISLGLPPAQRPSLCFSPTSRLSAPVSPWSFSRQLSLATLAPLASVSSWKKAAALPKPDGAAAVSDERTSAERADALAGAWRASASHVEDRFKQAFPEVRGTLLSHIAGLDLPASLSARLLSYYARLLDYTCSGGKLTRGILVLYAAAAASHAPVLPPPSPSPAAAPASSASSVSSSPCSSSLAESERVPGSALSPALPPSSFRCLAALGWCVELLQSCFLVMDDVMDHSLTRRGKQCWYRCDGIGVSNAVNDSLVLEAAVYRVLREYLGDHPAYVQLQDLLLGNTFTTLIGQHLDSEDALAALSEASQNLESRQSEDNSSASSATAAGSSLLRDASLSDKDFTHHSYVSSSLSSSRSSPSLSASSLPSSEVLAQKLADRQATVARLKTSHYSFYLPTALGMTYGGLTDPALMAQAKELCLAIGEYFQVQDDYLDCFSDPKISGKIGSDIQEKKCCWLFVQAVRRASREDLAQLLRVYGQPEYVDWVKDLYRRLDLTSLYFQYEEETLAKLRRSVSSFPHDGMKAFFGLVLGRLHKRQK
Nature of the test: FPPS enzymatic activity assay. Format: biochemical. The text has this: FPPS enzymatic activity assay on TgFPPS
Consider `CC(C)=CCC/C(C)=C/CSCC(P(=O)(O)O)P(=O)(O)O` [compound 44, 1-[((E)-3,7-Dimethylocta-2,6-diene-1-thio)ethyl] 1,1-bisphosphonic Acid], for which 313 ± 27 nM corresponded to half-maximal inhibition (IC50).
Under `CCCCNCC(F)(P(=O)(O)O)P(=O)(O)O` [compound 55, 1-[(n-But-1-ylamino)ethyl]-1-fluoro-1,1-bisphosphonic Acid] stands 91 ± 32 nM.
For `C=C(C)CNCC(P(=O)(O)O)P(=O)(O)O` [compound 19, 1-[(2-Methylall-1-ylamino)ethyl] 1,1-bisphosphonic Acid] the value was 183 ± 63 nM.

The values above are taken from PMC6155738, “Antiparasitic Activity of Sulfur- and Fluorine-Containing Bisphosphonates against Trypanosomatids and Apicomplexan Parasites” (Molecules : A Journal of Synthetic Chemistry and Natural …, 2017).
